Test results published in US20110082133A1, “PYRIDONE COMPOUNDS” (priority 2008, published 2011).
Counter-ions that a name gives are not always drawn.

Tests used:
[1] = biological target: T1, rat EP4 receptor (Rattus norvegicus, UniProt P43114); experiment: EP4 receptor agonistic action in rat (cAMP increasing action in rat EP4 receptor expression CHO-K1 cells); type: cell-based; design: expressed in transfected cells; settings: cAMP increasing action by 1 μM PGE2 taken as 100%
Procedure: The agonistic activity was evaluated by the cAMP increasing action in the rat EP4 receptor expression cells. The rat EP4 receptor expression vector was introduced into CHO-K1 cells (American Type Culture Collection) to prepare a rat EP4 receptor stable expression cell line. These cells were seeded onto a 96-well microplate at 2×10^4 cell/well, and used for the experiment the next day. The culture medium of each well was removed by suction, 100 μL/well of an assay culture medium (2 μM indomethacin, 0.1% bovine serum albumin-containing α-MEM) was added thereto, and incubated at 37° C. for 1 hour. The culture medium was removed again by suction, and replaced with 100 μL/well of an assay culture medium comprising a test compound and 1 mM IBMX (3-isobutyl-1-methylxanthine). After incubating at 37° C. for 30 minutes, the culture medium was removed by suction, 100 μL/well of a cell lysate (0.2% Triton-X100-containing phosphate buffer physiological saline) was put thereinto, and the plate was shaken for 10 minutes. Using a cAMP femto 2 kit (manufactured by Cis Bio International), the cAMP concentration in the cell lysate was measured. Further, the cAMP increasing action (%) was calculated with the cAMP increasing action by 1 μM PGE2 was taken as 100%.

[2] = system: TNF-α production; experiment: In vivo TNF-α production inhibiting action in rat (LPS-induced plasma TNF-α); design: species or system SD male rats; settings: oral administration 1 hour before LPS (10 μg/kg i.v.), plasma TNF-α 90 minutes after LPS
Procedure: LPS (10 μg/kg) was administered to caudal veins of SD male rats, and after 90 minutes from the administration, the heparin blood was collected from the abdominal vena cava to prepare a plasma. The test compound was orally administered 1 hour before the administration of LPS. The amount of TNF-α in the plasma was measured using a BD OptEIA rat TNF ELISA set (manufactured by Becton, Dickinson and Company) according to the attached method. The inhibitory rate by the test compound was determined from the amount of TNF-α in plasma in a control group (administered with a solvent).

[3] = biological target: T1, rat EP4 receptor; experiment: Evaluation test on EP4 receptor affinity in rat ([3H]PGE2 receptor binding test, membrane fraction); design: expressed in transfected cells; host or cells: HEK293 cells, transient transfection (Lipofectamine 2000); membrane fraction used; settings: [3H]PGE2 0.3 nM, membrane fraction of rat EP4 expressing HEK293 cells
Procedure: A rat EP4 receptor cDNA was subcloned into an expression vector (pcDNA3.1-V5-His-topo, manufactured by Invitrogen Corporation) to prepare a rat EP4 expression vector. HEK293 cells were cultured in a collagen type I-treated 15 cm dish (manufactured by Asahi Techno Glass Co. Ltd.) to a confluence of 70%. An Opti-MEM culture medium at 1.2 mL/dish and a transfection reagent (Lipofectamine 2000, manufactured by Invitrogen Corporation) at 60 μL/dish were mixed, followed by being left to stand at room temperature for 5 minutes. Then, the rat EP4 receptor expression vector at 15 μg/dish was added thereto, followed by being left to stand at room temperature for 30 minutes. The liquid mixture of the transfection reagent was added into the dish, followed by culturing for 20 to 24 hours. The cell culture was carried out in a CO2 incubator (37° C., 5% CO2).
The culture medium was removed by suction, 10 mL of cooled PBS was added thereto per 15 cm dish, and the cells were scraped using a cell scraper. After washed with cooled PBS (1,200 rpm, 4° C., 5 minutes), suspended in 6 mL/dish of cooled 20 mM Tris-HCl (pH 7.4; manufactured by Nacalai Tesque Inc., 5 mM EDTA included) and homogenized using a Polytron, the homogenate was centrifuged (26,000 rpm, 20 minutes, 4° C.). The obtained precipitate was resuspended in cooled 20 mM Tris-HCl and homogenized again using a Polytron, and the homogenate was centrifuged (26,000 rpm, 20 minutes, 4° C.). The obtained precipitate was resuspended in 50 mM HEPES (pH 7.5; manufactured by Dojindo Laboratories) at 1 mL per dish, homogenized using a Polytron, and freeze-stored at −80° C. as a membrane fraction. At this time, a part thereof was used for the measurement of the protein concentration. Measurement of the protein concentration was carried out using a Protein assay stain (manufactured by Bio-Rad Laboratories) in accordance with a standard Protocol as appended in duplicate.
[^3H]PGE2 50 μL (final concentration 0.3 nM; manufactured by Perkin Elmer Co., Ltd.), 100 μL (20 μg/well) of the membrane fraction prepared from the rat EP4 expression cell, and 50 μL of a test compound were mixed in a 96-well microplate (manufactured by Sumitomo Bakelite Co., Ltd.), incubated at room temperature for 1 hour, then filtered by suction on a microplate (UniFilter-96 GF/B, manufactured by Perkin Elmer Co., Ltd.) using a cell harvester (FilterMate Harvester, manufactured by Perkin Elmer Co., Ltd.), and washed three times with 300 μL/well of a cooled assay buffer (50 mM HEPES, 10 mM MgCl2). Dilution of [^3H]PGE2 and the membrane fraction was carried out using the assay buffer, and dilution of the test compound and the unlabeled PGE2 was carried out using dimethyl sulfoxide and the assay buffer. The UniFilter-96 GF/B was treated by preliminarily washing twice with 200 μL/well of the cooled assay buffer. The UniFilter-96 GF/B after filtration was dried in a dryer overnight, 50 μL/well of a liquid scintillation cocktail (MicroScint20, manufactured by Perkin Elmer Co., Ltd.) was added thereto, and the radioactivity was then measured using a liquid scintillation counter for a microplate (TopCount, manufactured by Perkin Elmer Co., Ltd.). For measurement of the non-specific binding, an unlabeled PGE2 (final concentration 1 μM; manufactured by Cayman Chemical Company) was added. All of the measurements were carried out in duplicate, and the specific binding amount was determined by subtracting the non-specific binding amount from the total binding amount.
According to the test method as described above, the rat EP4 receptor affinity (Ki) of the compound of the formula (I) was measured. […] In this connection, Ex means Example Compound number.

T1 sequence (P43114 whole entry): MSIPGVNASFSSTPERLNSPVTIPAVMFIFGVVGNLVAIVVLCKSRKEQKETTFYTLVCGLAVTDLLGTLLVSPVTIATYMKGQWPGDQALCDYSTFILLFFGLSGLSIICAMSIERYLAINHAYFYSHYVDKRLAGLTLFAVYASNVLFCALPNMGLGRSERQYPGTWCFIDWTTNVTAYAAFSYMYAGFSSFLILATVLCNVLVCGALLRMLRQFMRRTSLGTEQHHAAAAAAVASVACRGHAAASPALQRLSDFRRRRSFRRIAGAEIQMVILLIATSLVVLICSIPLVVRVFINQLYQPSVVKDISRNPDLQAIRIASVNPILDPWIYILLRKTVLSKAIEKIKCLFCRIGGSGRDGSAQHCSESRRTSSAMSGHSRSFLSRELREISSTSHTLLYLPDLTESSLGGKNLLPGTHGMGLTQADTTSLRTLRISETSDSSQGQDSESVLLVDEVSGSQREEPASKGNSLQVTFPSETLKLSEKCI

Structure (SMILES)	cAMP increasing action (%) at 10 μM [1] [%]	ED50 [2] [mg/kg]	Ki [3] [nM]
O=C(O)c1ccc(CCn2c(CN3CCc4ccc(F)cc43)c(Cl)cc(Cl)c2=O)cc1 [Example 9, 4-(2-{3,5-dichloro-6-[(6-fluoro-2,3-dihydro-1H-indol-1-yl)methyl]-2-oxopyridin-1(21-1)-yl}ethyl)benzoic acid]	65	4.3	11
CCC[C@H]1CCCN1Cc1c(Cl)cc(Cl)c(=O)n1CCc1ccc(C(=O)O)cc1 [Example 17, 4-{2-[3,5-dichloro-2-oxo-6-{[(2S)-2-propylpyrrolidin-1-yl]methyl}pyridin-1(2H)-yl]ethyl}benzoic acid trifluoroacetate]	58	0.15	11
O=C(O)c1ccc(CCn2c(CNc3cccc(OC(F)(F)F)c3)c(Cl)cc(Cl)c2=O)cc1 [Example 107]	76	1	10
CN(Cc1c(Cl)cc(Cl)c(=O)n1CCc1ccc(C(=O)O)cc1)c1cccc(Cl)c1 [Example 160]	79	2.3	11
